Assay results from US20240002361A1, “COMPOSITIONS AND METHODS FOR BLOCKING NEUROPILIN RECEPTOR 1 FOR THE TREATMENT OF PAIN AND PREVENTION OF VIRAL ENTRY” (Arizona Board of Regents on Behalf of the University of …, priority 2020, published 2024).
pIC50: −log10 of the molar value. Values after ≈ are worked out from the molar mass of the structure shown. Values joined by “and” are separate entries in the source; they are usually repeats but may differ in a detail not shown here. Identical values can stand only once.

Legend:
NRP-1/VEGF-A interaction [1] = target: T1, NRP-1/VEGF-A interaction (Homo sapiens, UniProt O14786); experiment: ELISA-based NRP1-VEGF-A165 protein binding assay (single concentration); conditions: compounds 12.5 μM (Spike S1 100 nM), biotinylated VEGF-A165 10 nM; ± standard error of the mean, n = 11
T1 construct: coated with the extracellular domain of human NRP-1 (containing the a1a2 and the b1b2 regions); purchased Fisher, Hampton, NH 50-101-8343
T1 sequence (O14786 22-856 limits assumed): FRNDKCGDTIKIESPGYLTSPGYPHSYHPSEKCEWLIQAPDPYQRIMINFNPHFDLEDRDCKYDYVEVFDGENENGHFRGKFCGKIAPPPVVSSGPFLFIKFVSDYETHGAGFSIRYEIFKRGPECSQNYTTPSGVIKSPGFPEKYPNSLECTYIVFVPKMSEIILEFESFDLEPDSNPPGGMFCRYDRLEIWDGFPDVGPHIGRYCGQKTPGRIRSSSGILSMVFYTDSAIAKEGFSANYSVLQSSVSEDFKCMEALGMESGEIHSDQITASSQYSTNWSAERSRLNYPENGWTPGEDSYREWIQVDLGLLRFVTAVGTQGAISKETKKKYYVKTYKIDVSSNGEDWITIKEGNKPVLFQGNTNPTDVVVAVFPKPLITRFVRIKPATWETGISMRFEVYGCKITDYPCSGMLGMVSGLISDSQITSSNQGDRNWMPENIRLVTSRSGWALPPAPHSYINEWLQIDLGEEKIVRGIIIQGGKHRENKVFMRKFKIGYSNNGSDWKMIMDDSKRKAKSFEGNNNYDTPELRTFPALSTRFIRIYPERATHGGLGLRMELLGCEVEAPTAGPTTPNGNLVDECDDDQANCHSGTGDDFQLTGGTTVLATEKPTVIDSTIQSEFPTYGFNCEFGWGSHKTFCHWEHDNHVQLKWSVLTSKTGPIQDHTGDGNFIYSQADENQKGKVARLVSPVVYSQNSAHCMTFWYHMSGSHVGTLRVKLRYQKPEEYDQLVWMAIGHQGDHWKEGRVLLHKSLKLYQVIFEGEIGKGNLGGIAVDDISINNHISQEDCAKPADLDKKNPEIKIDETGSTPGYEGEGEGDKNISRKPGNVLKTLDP

HepG2 cells = experiment: Cell proliferation and cytotoxicity in HepG2 cells (CellTiterGlo); assay type: cell-based; conditions: Homo sapiens, 48 h
Protocol: (§1) Additionally, an initial absorption, distribution, metabolism, and excretion (ADME) profile of the compound series was performed (Table 4).

in vitro = in vitro ADME; conditions: microsomes
Protocol: as §1

physchem = assay type: physicochemical; conditions: for logD: pH 7.4; for solubility kinetic: pH 7.4, aqueous buffer, kinetic from dmso stock
Protocol: as §1

NRP-1/VEGF-A interaction [2] = target: T1, NRP-1/VEGF-A interaction; experiment: ELISA-based NRP1-VEGF-A165 protein binding assay (concentration-response, IC50); conditions: 20 nM biotinylated hVEGF-A165 with 4 μg/ml heparin, n=3, read-out: Calculated IC50 values of inhibiting the NRP-1/VEGF-A interaction
Protocol: Plates (96-well, Nunc Maxisorp; Thermo Fisher Scientific, Waltham, MA, USA) were coated with human Neuropilin-1-Fc (200 ng per well, Cat #50-101-8343, Fisher, Hampton, NH) and incubated at 4° C. overnight. The following day, the plates were washed and blocked with 3% BSA in PBS to minimize non-specific adsorptive binding to the plates. EG00229 (Cat #6986, Tocris) or the indicated compounds were added at different concentrations and incubated for 30 min at room temperature prior to adding biotinylated human VEGF-A165 (Cat #BT10543-025, R&D systems) at 20 nM with 4 μg/ml of heparin. As a negative control, some wells received PBS containing 3% BSA and as a positive control only hVEGF-A165 was used. The plates were incubated at room temperature with shaking for 2 h. Next, the plates were washed with PBS 0.05% Tween to eliminate unbound protein. Bound biotinylated VEGF was detected by streptavidin-HRP (Cat #016-030-084, Jackson immunoResearch). Tetramethylbenzidine (Cat #DY999, R&D Systems, St. Louis, MO) was used as the colorimetric substrate. The optical density of each well was determined immediately, using a microplate reader (Multiskan Ascent; Thermo Fisher Scientific) set to 450 nm with a correction wavelength of 570 nm. Percentage of inhibition was calculated by the following formula: […]
where S is the optical density measured in the wells with the compounds, N is the optical density measured in the negative control wells and P is the optical density in the positive control wells. The IC50 was calculated using a non-linear regression function with GraphPad Prism Version 9. The data are presented as log (inhibitor) [M] versus normalized response-variable slope. Data are the means±S.E.M. of three independent experiments.
Finally, the ability of the compounds to interfere with the NRP-1NEGF-A interaction was evaluated using an enzyme linked immunosorbent assay (ELISA), as previously described (Moutal, et al., Pain 2021, 12(1), 243-252). Plates were coated with the extracellular domain of human NRP-1 (containing the a1a2 and the b1b2 regions) and the compounds were added to disrupt the NRP-1NEGF-A interaction. The biotinylated human VEGF-A used in the experiments described above (Moutal, et al., Pain 2021, 12(1), 243-252) was discontinued. For the instant studies, biotinylated hVEGF-A (Cat #BT10543-025, R&D systems) was used. Because of that, the known NRP-1 antagonist EG00229 and compound 4 from the above series of inhibitors (Moutal, et al., Pain 2021, 12(1), 243-252) were also tested in the instant studies.

VSV-eGFP-SARS-CoV-2 = assay type: cell-based
pY1175 VEGFR2 = experiment: In cell Western for detecting inhibition of VEGFR2 activation by VEGF-A165; assay type: cell-based, mouse; conditions: CAD cells, compounds 12.5 μM or Spike 100 nM, 1 nM VEGF-A165, 1 hour

| SMILES | Rel % inhibition (NRP-1/VEGF-A interaction [1]) [%] | pIC50 (HepG2 cells) | half-life (in vitro; human) [min] | half-life (in vitro; mouse) [min] | half-life (in vitro; rat) [min] | logD (physchem) | solubility kinetic (physchem) [µM] | pIC50 (NRP-1/VEGF-A interaction [2]) | inhibition of VSV-eGFP-SARS-CoV-2 antiviral activity (VSV-eGFP-SARS-CoV-2) | inhibition of VEGF-A stimulated increased phosphorylation of VEGFR2 (pY1175) (pY1175 VEGFR2) |
| --- | --- | --- | --- | --- | --- | --- | --- | --- | --- | --- |
| O=c1cnnc(Nc2ccccc2O)[nH]1 [Compound 8] | 24 ± 16 |  |  |  |  |  |  |  |  |  |
| COc1ccc(C)c(-c2cc(=O)[nH]c(Nc3ccccc3)n2)c1 [Compound 1v, 2-anilino-4-(5-methoxy-2-methyl-phenyl)-1H-pyrimidin-6-one] |  | < 4.52 | > 120 | > 120 | 4.7 | 2.91 | 8 (≈ 2.46 µg/mL) |  |  |  |
| COc1cccc(-c2cc(Nc3ccccc3)[nH]c(=O)n2)c1 [Compound 1b-iso, 6-anilino-4-(3-methoxyphenyl)-1H-pyrimidin-2-one] |  | < 4.52 | 102 | 22 | 4.4 | 2.78 | 4.7 (≈ 1.38 µg/mL) | 3.98 |  |  |
| O=C(/C=C/c1ccc(O)c(O)c1)O[C@@H](C(=O)O)[C@@H](O)C(=O)O [Compound 17] | 12 ± 16 |  |  |  |  |  |  |  | ~15% |  |
| COc1cc(-c2cc(=O)[nH]c(Nc3ccccc3)n2)ccn1 [Compound 1s, 2-anilino-4-(2-methoxy-4-pyridyl)-1H-pyrimidin-6-one] |  | < 4.52 | 16.6 | 13.6 | 9.4 | 3.15 | 11.5 (≈ 3.38 µg/mL) | 2.99 |  |  |
| O=c1cc(Nc2cccc(O)c2)[nH]c(=O)[nH]1 [Compound 9c, 6-(3-hydroxyanilino)-1H-pyrimidine-2,4-dione] |  | < 4.52 | > 120 | > 120 | > 120 | 0.38 | > 200 | 3.33 |  |  |
| COc1cccc(-c2nc(Nc3c[nH]c(C(=O)O)c3)cc(=O)[nH]2)c1 [1g′, 4-[[2-(3-methoxyphenyl)-6-oxo-1H-pyrimidin-4-yl]amino]-1H-pyrrole-2-carboxylic acid] |  | < 4.52 | > 120 | > 120 | > 120 | -0.62 | > 200 | 4.55 |  |  |
| COc1cc(-c2cc(=O)[nH]c(Nc3ccc(Cl)c(O)c3)n2)ccn1 [Compound 1d, 2-(4-chloro-3-hydroxy-anilino)-4-(2-methoxy-4-pyridyl)-1H-pyrimidin-6-one] |  | < 4.52 | 28.4 | 59.7 | 14.1 | 3.15 | 19.4 (≈ 6.69 µg/mL) | 3.87 |  |  |
| COc1cccc(-c2cc(=O)[nH]c(Nc3cccc(O)c3)n2)c1 [Compound 1c, 2-(3-hydroxyanilino)-4-(3-methoxyphenyl)-1H-pyrimidin-6-one] |  | < 4.52 | > 120 | 71.7 | 4.4 | 2.49 | 14.2 (≈ 4.39 µg/mL) | 4.64 |  |  |
| COc1ccccc1Nc1nncc(=O)[nH]1 [Compound 7] | 18 ± 19 |  |  |  |  |  |  |  |  |  |
| O=C(O)Cc1cnc(-c2cccnc2)[nH]c1=O [Compound 11] | 43 ± 16 |  |  |  |  |  |  |  |  |  |
| COc1cccc(-c2cc(=O)[nH]c(Nc3ccnc(N)c3)n2)c1 [Compound 1a, 2-[(2-amino-4-pyridyl)amino]-4-(3-methoxyphenyl)-1H-pyrimidin-6-one] |  | < 4.52 | > 120 | 29.3 | 3.8 | 1.64 | 184 (≈ 56.9 µg/mL) | 3.67 |  |  |
| CC(C)Cc1cc(C(=O)NCCO)nc(=O)[nH]1 [Compound 2a, N-(2-hydroxyethyl)-6-isobutyl-2-oxo-1H-pyrimidine-4-carboxamide] |  | < 4.52 | > 120 | > 120 | > 120 | 0.02 | > 200 | ≥ 4.49 and 5.74 |  |  |
| Cc1cc(CN(C)Cc2cc(=O)[nH]c(=O)[nH]2)no1 [Compound 9] | 43 ± 8 |  |  |  |  |  |  |  |  |  |
| COc1cccc(-c2nc(Nc3ccccc3)cc(=O)[nH]2)c1 [Compound 1b, 4-anilino-2-(3-methoxyphenyl)-1H-pyrimidin-6-one] |  | < 4.52 | 14.8 | 9.4 | 8.3 | 3.78 | 3.5 (≈ 1.03 µg/mL) | 3.95 |  |  |
| COc1ccccc1Nc1nc(-c2cnc(N3CCCC3)nc2C)cc(=O)[nH]1 [Compound 5] | 42 ± 10 |  |  |  |  |  |  |  |  |  |
| COc1cccc(-c2cc(=O)[nH]c(Nc3ccccc3)n2)c1 [Compound 1] | 56 ± 7 |  |  |  |  |  |  |  |  |  |
| COc1cccc(-c2cc(=O)[nH]c(Nc3ccccc3)n2)n1 [Compound 1u, 2-anilino-4-(6-methoxy-2-pyridyl)-1H-pyrimidin-6-one] |  | < 4.52 | 18.9 | 9.6 | 3.9 | 3.51 | 10.4 (≈ 3.06 µg/mL) | 3.43 |  |  |
| NC(N)=NCCC[C@H](NC(=O)c1sccc1NS(=O)(=O)c1cccc2nsnc12)C(=O)O [EG00229, reference compound] | 33 ± 10 |  |  |  |  |  |  | 2.86 | ineffective | blocked |
| CC(C)Cc1cc(C(=O)NCC2CCOC2)nc(=O)[nH]1 (stereo not shown) [Compound 2] | 59 ± 11 |  |  |  |  |  |  |  |  |  |
| COc1cccc(-c2cc(=O)[nH]c(Nc3c[nH]c(C(=O)O)c3)n2)c1 [1g′-iso, 4-[[4-(3-methoxyphenyl)-6-oxo-1H-pyrimidin-2-yl]amino]-1H-pyrrole-2-carboxylic acid] |  | < 4.52 | > 120 | > 120 | > 120 | -0.38 | > 200 | 4.49 |  |  |
| COc1cccc(-c2cc(=O)[nH]c(Nc3cc[nH]n3)n2)c1 [Compound 1t, 4-(3-methoxyphenyl)-2-(1H-pyrazol-3-ylamino)-1H-pyrimidin-6-one] |  | < 4.52 | 64.5 | 4.5 | 12.7 | 2.67 | 48.7 (≈ 13.8 µg/mL) | 3.89 |  |  |
